Article PMC5041982, “Small-molecule inhibition of STAT3 in radioresistant head and neck squamous cell carcinoma” (Oncotarget, 2016)
Read-outs that look alike come from different tables or passages of the source.

Columns and labels:
[1] = molecular target: T1, STAT3 (Homo sapiens, UniProt P40763); experiment: STAT3/pY-peptide binding surface plasmon resonance (SPR) assay; details: for Inhibition of STAT3 binding to pY-peptide compared with C188: SPR; for IC50: STAT3 200 nM, EGFR pY1068 dodecapeptide, mean, n ≥ 2, read-out: pY-Peptide Binding (SPR) IC50
T1 sequence (P40763 whole entry, species assumed): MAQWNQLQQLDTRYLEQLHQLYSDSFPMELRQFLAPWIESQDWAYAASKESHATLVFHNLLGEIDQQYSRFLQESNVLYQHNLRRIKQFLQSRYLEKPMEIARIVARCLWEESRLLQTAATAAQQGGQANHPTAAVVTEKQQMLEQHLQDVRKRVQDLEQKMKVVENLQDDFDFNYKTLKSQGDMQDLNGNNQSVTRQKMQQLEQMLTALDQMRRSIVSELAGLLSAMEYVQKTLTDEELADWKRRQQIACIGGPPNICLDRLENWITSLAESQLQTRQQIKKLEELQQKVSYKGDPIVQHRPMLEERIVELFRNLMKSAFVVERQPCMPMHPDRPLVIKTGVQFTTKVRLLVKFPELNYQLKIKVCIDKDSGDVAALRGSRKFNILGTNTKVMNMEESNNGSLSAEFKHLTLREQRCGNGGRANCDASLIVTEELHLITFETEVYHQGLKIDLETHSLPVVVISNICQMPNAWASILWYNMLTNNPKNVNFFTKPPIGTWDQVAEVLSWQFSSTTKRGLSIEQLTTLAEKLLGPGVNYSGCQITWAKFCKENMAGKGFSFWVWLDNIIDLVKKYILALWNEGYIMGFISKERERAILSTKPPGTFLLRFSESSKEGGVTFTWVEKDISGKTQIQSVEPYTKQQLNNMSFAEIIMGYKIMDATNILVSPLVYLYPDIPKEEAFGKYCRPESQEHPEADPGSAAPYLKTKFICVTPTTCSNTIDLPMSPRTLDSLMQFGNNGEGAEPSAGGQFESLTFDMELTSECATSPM
Procedure: The equilibrium binding levels obtained ± compound were normalized (resonance obtained in the presence of compound ÷ the resonance obtained in the absence of compound × 100) and plotted against Log [nM] […] B. Inhibition of ligand-stimulated STAT phosphorylation, measured by phosphoflow. Serum-starved (1 hour) Kasumi-1 cells, pre-incubated with compound/DMSO (1 hour), were treated with G-CSF (10 ng/ml, 15 min, left two panels) or IFN-γ (10ng/ml, 15 min, right panel). Cells were permeabilized and stained with Alexa647-pSTAT3, and PE-pSTAT1 antibodies and analyzed on BD LSR2. FCS files were uploaded to Cytobank for pSTAT3 and pSTAT1 quantitation. Histograms depicting pSTAT3 and pSTAT1 levels are shown. C. Mean fluorescence (pSTAT3/1) levels were plotted as function the Log [M] compound, and IC50 calculated using GraphPad. […] D. Inhibition of ligand-stimulated STAT phosphorylation, measured by Luminex. Serum-starved (1 hour) Kasumi-1 cells, pre-incubated with compound/DMSO (0/0.1/0.3/1/3/10/100 μM, 1 hour), were treated with G-CSF (10 ng/ml, 15′). Total protein extracts of cells were assayed for pSTAT3, pSTAT1, and GAPDH levels by Luminex. GAPDH-normalized pSTAT3 or pSTAT1 values were divided by this ratio for untreated cells and expressed in percentage. These values were plotted as a function of Log [M] compound, and IC50 values calculated using GraphPad. […]
3-D pharmacophore sorting used to evaluate the effect of each compound on STAT3 binding. Responses were normalized by dividing the […]
fingerprint screening were converted into 3-D structures compounds at 2 min and multiplying by 100. IC values […]
for analysis as described below. were determined by plotting % maximum response as a 3-D pharmacophore generation function of log concentration of compound and fitting the Each molecular chemical feature, including experimental points to a competitive binding model using hydrogen bond donor, hydrogen bond acceptor, positive a four parameter logistic equation: R = Rhigh − (Rhigh − R low)/ (1 + conc/A1)^A2, where R = percent response at and negative ionizable group, and hydrophobic region, inhibitor concentration, R = percent response with no was generated using the LigandScout application compound, R= percent response at highest compound high framework and projected into 3-D space. concentration, A2 = fitting parameter (slope) and A1 = low Feature-pairing IC50 (BIAevaluation Software version 4.1). The inhibition Each chemical feature was converted into distance constant (Ki) was derived from the Cheng-Prusoff bin and the complete set of distance bins used to construct equation Ki=IC50/(1+[C]/Kd) as used by Halling et al a cost matrix. The most favorable pairing based on cost where C stands for STAT3 concentration used in the SPR matrix was identified. assay and Kd denotes the dissociation constant for STAT3 3-D pharmacophore transformation binding to its phosphorylated EGFR ligand in the SPR […]
STAT3/pY-peptide binding assay and total protein extracted from cell pellets. […]
STAT3 binding assays were performed at 25 °C (Millipore, Danvers, MA) coupled to antibody against

[2] = molecular target: T2, pSTAT3 (Tyr-705) (Homo sapiens, UniProt P40763); experiment: Phosphoflow, G-CSF-induced STAT3 phosphorylation in Kasumi-1 cells; format: cell-based; details: Kasumi-1, G-CSF 10 ng/ml 15 min; mean, n ≥ 2; read-out: Ligand Induced Phosphorylation (Phosphoflow) pSTAT3 (GCSF) IC50
T2 construct: endogenous in cells; host or cells: Kasumi-1
T2 sequence (P40763 whole entry): as the sequence (P40763 whole entry, species assumed) above
Procedure: (§1) The equilibrium binding levels obtained ± compound were normalized (resonance obtained in the presence of compound ÷ the resonance obtained in the absence of compound × 100) and plotted against Log [nM] […] B. Inhibition of ligand-stimulated STAT phosphorylation, measured by phosphoflow. Serum-starved (1 hour) Kasumi-1 cells, pre-incubated with compound/DMSO (1 hour), were treated with G-CSF (10 ng/ml, 15 min, left two panels) or IFN-γ (10ng/ml, 15 min, right panel). Cells were permeabilized and stained with Alexa647-pSTAT3, and PE-pSTAT1 antibodies and analyzed on BD LSR2. FCS files were uploaded to Cytobank for pSTAT3 and pSTAT1 quantitation. Histograms depicting pSTAT3 and pSTAT1 levels are shown. C. Mean fluorescence (pSTAT3/1) levels were plotted as function the Log [M] compound, and IC50 calculated using GraphPad. […] D. Inhibition of ligand-stimulated STAT phosphorylation, measured by Luminex. Serum-starved (1 hour) Kasumi-1 cells, pre-incubated with compound/DMSO (0/0.1/0.3/1/3/10/100 μM, 1 hour), were treated with G-CSF (10 ng/ml, 15′). Total protein extracts of cells were assayed for pSTAT3, pSTAT1, and GAPDH levels by Luminex. GAPDH-normalized pSTAT3 or pSTAT1 values were divided by this ratio for untreated cells and expressed in percentage. These values were plotted as a function of Log [M] compound, and IC50 values calculated using GraphPad.
(§2) Phosphoflow analysis was done as described in Xu et al. Briefly, Kasumi-1 cells, were serum-starved, pre-treated with compound or DMSO (1 hour, RT) and then stimulated with 20 μl of GCSF (10 ng/ml) for 15 minutes at 37°C. The cells were then permeabilized and stained with Alexa647-pSTAT3, Alexa488-pSTAT5 and PE-pSTAT1 antibodies and analyzed using the BD LSR2. FCS files were exported and uploaded to Cytobank for determination of phosphoproteins as earlier. Gating was done on live, single cells and then gates selected for positive ligand-activated pSTAT3 and pSTAT1. IC50 values were calculated using the GraphPad Prism.

[3] = system: pSTAT5; experiment: Phosphoflow, G-CSF-induced pSTAT5 in Kasumi-1 cells; format: cell-based; details: mean, n ≥ 2, read-out: Ligand Induced Phosphorylation (Phosphoflow) pSTAT5 (G-CSF) IC50
Procedure: as §2

[4] = molecular target: T3, pSTAT1 (Tyr-701) (Homo sapiens, UniProt P42224); experiment: Phosphoflow, IFN-γ-induced pSTAT1 in Kasumi-1 cells; format: cell-based; details: Kasumi-1, IFN-γ 10 ng/ml 15 min; mean, n ≥ 2; read-out: Ligand Induced Phosphorylation (Phosphoflow) pSTAT1 (IFN-γ) IC50
T3 construct: endogenous in cells; host or cells: Kasumi-1
T3 sequence (P42224 1-750): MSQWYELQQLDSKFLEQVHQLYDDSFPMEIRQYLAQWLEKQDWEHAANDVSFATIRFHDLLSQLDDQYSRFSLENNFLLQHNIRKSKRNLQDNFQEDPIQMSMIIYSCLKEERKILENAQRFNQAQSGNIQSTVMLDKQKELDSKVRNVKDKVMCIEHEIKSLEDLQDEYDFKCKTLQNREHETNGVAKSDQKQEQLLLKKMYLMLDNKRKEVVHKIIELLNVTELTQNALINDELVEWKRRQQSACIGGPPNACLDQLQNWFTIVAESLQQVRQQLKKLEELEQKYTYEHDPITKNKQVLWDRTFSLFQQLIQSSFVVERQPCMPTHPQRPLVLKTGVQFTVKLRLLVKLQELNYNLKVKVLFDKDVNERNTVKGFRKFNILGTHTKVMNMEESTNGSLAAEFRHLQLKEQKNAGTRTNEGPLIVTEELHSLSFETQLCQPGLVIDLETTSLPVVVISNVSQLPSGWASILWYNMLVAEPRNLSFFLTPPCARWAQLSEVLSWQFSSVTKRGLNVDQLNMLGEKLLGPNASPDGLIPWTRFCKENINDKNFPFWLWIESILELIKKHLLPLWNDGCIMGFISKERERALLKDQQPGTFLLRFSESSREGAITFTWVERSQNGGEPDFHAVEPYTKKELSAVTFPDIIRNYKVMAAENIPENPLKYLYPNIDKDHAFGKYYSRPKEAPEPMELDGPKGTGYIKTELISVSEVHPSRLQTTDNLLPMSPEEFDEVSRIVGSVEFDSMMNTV
Procedure: as §1, §2

[5] = system: normal murine bone marrow colony formation; experiment: Normal murine bone marrow colony formation; format: cell-based; details: studies not shown (Tweardy et al 2010, unpublished)
[6] = molecular target: T1, STAT3; design: method as in PMID 24308725; details: read-out: IC50 inhibition of STAT3 in a luciferase reporter assay; cited from earlier work
[7] = system: pSTAT3; details: read-out: IC50 inhibition of cytokine-induced pSTAT3 levels; cited from earlier work
[8] = system: tumor cells; details: read-out: IC50 killing of tumor cells; cited from earlier work
[9] = molecular target: T1, STAT3; design: method as in PMID 17114005; details: read-out: IC50 inhibition of STAT3 binding to pY-peptide; cited from earlier work

Structure (SMILES)	Inhibition of STAT3 binding to pY-peptide compared with C188 [1]	IC50 [1] [µM]	IC50 [2] [µM]	IC50 [3] [µM]	IC50 [4] [µM]	Inhibition of normal murine bone marrow colony formation [5]	IC50 [6] [µM]	IC50 [7] [µM]	IC50 [8] [µM]	IC50 [9] [µM]
O=S(=O)(Nc1ccc(O)c2ccccc12)c1cccc2cccnc12 [Compound C188-39]		> 300	> 300	> 300	> 300					
O=[N+]([O-])c1cccc(S(=O)(=O)Nc2cc(Sc3nc4ccccc4s3)c(O)c3ccccc23)c1 [Compound C188-1]	improved inhibition	5.5 ± 2.1	16.2 ± 24.1	1.5	50.5 ± 53					
C[C@@H]1CC(=O)c2c(ccc3c2C(=O)c2cccc(O)c2C3=O)C1 [STA-21]							12.2 to 18.7			
COC(=O)[C@H](Cc1cn(C)cn1)NC(=O)[C@@H](NC(=O)Nc1cc(C(F)(F)F)cc(C(F)(F)F)c1)C(C)C [XZH-5]								20 to 30		
Cc1cc(S(=O)(=O)Nc2cc3c4c(oc3c3ccccc23)CCCC4=O)ccc1Cl [Compound C188-34]		13.5 ± 3.5	> 300	> 300	> 300					
COc1ccc(OC)c(S(=O)(=O)Nc2cc(Sc3ccccc3)c(O)c3ccccc23)c1 [Compound C188-19]	improved inhibition	5.5 ± 4.9	> 300	> 300	> 300					
NS(=O)(=O)c1cccc2c1C(=O)c1cccc(O)c1C2=O [LLL12]									~5	
CC(=O)Nc1c([N+](=O)[O-])cc(NS(=O)(=O)c2ccccc2)c2ccccc12 [Compound C188-12]		> 300	> 300	> 300	> 300					
Cc1ccc(S(=O)(=O)Nc2cc3sc(=O)oc3c3ccccc23)c(C)c1 [Compound C188-32]		48 ± 19.8	7.5 ± 3.6	> 300	3					
CC(C)OC(=O)C(C(=O)C(F)(F)F)c1cc(NS(=O)(=O)c2ccc3c4c(cccc24)C(=O)N3)c2ccccc2c1O (centres unmarked) [Compound C188-8]	improved inhibition	4.5 ± 2.1	3.4 ± 0.9	23	35 ± 25.2	inhibited				
O=[N+]([O-])c1ccc2c(c1)S(=O)(=O)C=C2 [Stattic]										5.1
Cc1ccc(S(=O)(=O)Nc2cc(Sc3nc4ccccc4s3)c(O)c3ccccc23)c(C)c1 [Compound C188-2]		20 ± 9.9	29.8 ± 25.9	35 ± 29.7	51					

Further compounds by falling IC50 [1], results first:

Inhibition of STAT3 binding to pY-peptide compared with C188 [1]	IC50 [1] [µM]	IC50 [2] [µM]	IC50 [3] [µM]	IC50 [4] [µM]	Inhibition of normal murine bone marrow colony formation [5]	Structure (SMILES)	IC50 [6] [µM]	IC50 [7] [µM]	IC50 [8] [µM]	IC50 [9] [µM]
	31.5 ± 7.8	> 300	> 300	> 300		CC(C)(C)c1ccc(S(=O)(=O)Nc2cc3c4c(oc3c3ccccc23)CCCC4=O)cc1 [Compound C188-36]				
	24.5 ± 6.4	> 300	> 300	> 300		CC(C)c1ccc(S(=O)(=O)Nc2cc3c4c(oc3c3ccccc23)CCCC4)cc1 [Compound C188-37]				
	20 ± 4.2	7.9 ± 5.8	6	10		CC(C)(C)c1ccc(S(=O)(=O)Nc2cc3sc(=O)oc3c3ccccc23)cc1 [Compound C188-33]				
improved inhibition	4.7 ± 2.1	10.5 ± 13.4	> 300	35 ± 39.6	inhibited	CC(C)OC(=O)C(C(=O)C(F)(F)F)c1cc(NS(=O)(=O)c2ccc(F)cc2)c2ccccc2c1O (centres unmarked) [Compound C188-7]				
improved inhibition	3.5 ± 0.7	> 300	> 300	> 300		Cc1cc(C)c(S(=O)(=O)Nc2cc(Sc3nc[nH]n3)c(O)c3ccccc23)cc1C [Compound C188-18]				
improved inhibition	1.5 ± 0.7	3.3 ± 0.2	12 ± 1.4		inhibited	O=S(=O)(Nc1cc(Sc2nc[nH]n2)c(O)c2ccccc12)c1ccc(Br)cc1 [Compound C188-15]				
